In test [1] the target is T1, human cannabinoid receptor type 1 (Homo sapiens, UniProt P21554).
T1 construct: purchased Perkin Elmer RBHCB1M; host or cells: HEK 293 EBNA cells
As to the kind of experiment: Human CB1 Radioligand Binding Assay (basis of selectivity CB2 vs. CB1). A digest of the protocol:
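Filtration competition binding against [3H] CP-55,940 at its Kd, using membranes from HEK 293 EBNA cells expressing human CB1; 90 minutes at 30° C in 50 mM Tris-HCl pH 7.4, 2.5 mM EDTA, 5 mM MgCl2, 5.0 mg/ml BSA, 1% DMSO. Single point 10 uM or dose-response; 100 nM CP-55,940 defined 100% efficacy.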

A further test addresses T2, Human CB2 (Homo sapiens, UniProt P34972).
T2 construct: expressed in transfected cells; membrane preparation
The test is described as follows: Human CB2 Radioligand Binding Assay. To be noted: membranes from stably transfected CHO CB2 cells; competition with [3H] CP-55,940; read-out: CB2 Ligand Binding Asssay. A digest of the protocol: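 Filtration competition against [3H]CP-55,940 at its Kd on membranes from CHO cells stably expressing human CB2; compounds at 10 uM single point or dose-response, 1% DMSO. Buffer 50 mM Tris-HCl pH 7.4, EGTA, MgCl2, 5.0 mg/ml BSA; 90 min at 30° C, scintillation read; 100 nM CP-55,940 = 100%.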

Each structure is given as a SMILES string. Bounds are passed on as bounds.

T2 sequence (P34972 whole entry): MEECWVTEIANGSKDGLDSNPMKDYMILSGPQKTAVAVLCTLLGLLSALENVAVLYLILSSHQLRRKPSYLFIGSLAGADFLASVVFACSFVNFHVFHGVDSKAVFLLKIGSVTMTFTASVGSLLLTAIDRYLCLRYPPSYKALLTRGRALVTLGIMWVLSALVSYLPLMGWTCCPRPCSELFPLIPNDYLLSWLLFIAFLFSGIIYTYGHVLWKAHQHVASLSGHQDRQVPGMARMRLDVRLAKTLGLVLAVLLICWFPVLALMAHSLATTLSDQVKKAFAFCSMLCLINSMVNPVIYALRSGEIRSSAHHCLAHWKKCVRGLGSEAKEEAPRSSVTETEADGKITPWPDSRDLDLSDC
T1 sequence (P21554 whole entry): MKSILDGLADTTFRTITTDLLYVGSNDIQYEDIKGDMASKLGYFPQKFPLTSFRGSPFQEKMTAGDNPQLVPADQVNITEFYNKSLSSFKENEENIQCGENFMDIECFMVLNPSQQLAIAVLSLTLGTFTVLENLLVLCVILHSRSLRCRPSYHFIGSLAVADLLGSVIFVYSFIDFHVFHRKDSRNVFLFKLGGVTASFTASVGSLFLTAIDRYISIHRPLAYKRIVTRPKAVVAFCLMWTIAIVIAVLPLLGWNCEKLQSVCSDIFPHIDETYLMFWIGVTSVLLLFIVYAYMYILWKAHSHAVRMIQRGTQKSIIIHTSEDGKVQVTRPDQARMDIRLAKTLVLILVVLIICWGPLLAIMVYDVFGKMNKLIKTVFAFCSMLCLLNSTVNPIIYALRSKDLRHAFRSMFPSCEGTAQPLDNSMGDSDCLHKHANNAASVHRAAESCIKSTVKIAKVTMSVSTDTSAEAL

On to `CC(=O)N1CCCn2cccc2C1c1ccc(C(C)(C)C)cc1` (stereo not shown) [Example 46, 1-(1-(4-tert-Butylphenyl)-4,5-dihydro-1H-pyrrolo[1,2-a][1,4]diazepin-2(3H)-yl)ethanone], for which the “Selectivity, CB2 vs. CB1” value in test [1] was “− (− indicates < 10-fold)”. Further, the IC50 (radioligand displacement) at Human CB2 is more than 1000 nM.

Turning to `CC(C)(C)c1ccc(C2c3nccn3CCCN2C(=O)c2ccc(F)cc2F)cc1` (stereo not shown) [Example 47, (9-(4-tert-Butylphenyl)-6,7-dihydro-5H-imidazo[1,2-a][1,4]diazepin-8(9H)-yl)(2,4-difluorophenyl)methanone], in test [1], the “Selectivity, CB2 vs. CB1” value is recorded as “− (− indicates < 10-fold)”. Further, the IC50 (radioligand displacement) on Human CB2 is less than 1000 nM.

In the case of `CC(C)(C)c1ccc(C2c3nccn3CCCN2C(=O)c2ccc(Cl)cc2Cl)cc1` (stereo not shown) [Example 48, (9-(4-tert-Butylphenyl)-6,7-dihydro-5H-imidazo[1,2-a][1,4]diazepin-8(9H)-yl)(2,4-dichlorophenyl)methanone], the “Selectivity, CB2 vs. CB1” value in test [1] is listed as “− (− indicates < 10-fold)”. The IC50 (radioligand displacement) on Human CB2 is more than 1000 nM.

`CC(C)(C)c1ccc(C2c3cccn3CCCN2C(=O)c2ccc(Cl)cc2Cl)cc1` (stereo not shown) [Example 49, (1-(4-tert-Butylphenyl)-4,5-dihydro-1H-pyrrolo[1,2-a][1,4]diazepin-2(3H)-yl)(2,4-dichlorophenyl)methanone]: the “Selectivity, CB2 vs. CB1” value in test [1] is listed as “− (− indicates < 10-fold)”. Further, the IC50 (radioligand displacement) on Human CB2 is less than 1000 nM.

As for `CC(C)(C)c1ccc(C2c3cccn3CCCN2C(=O)Cc2ccc(F)cc2)cc1` (stereo not shown) [Example 50, 1-(1-(4-tert-Butylphenyl)-4,5-dihydro-1H-pyrrolo[1,2-a][1,4]diazepin-2(3H)-yl)-2-(4-fluorophenyl)ethanone], the “Selectivity, CB2 vs. CB1” value in test [1] is given as “− (− indicates < 10-fold)”. On Human CB2, the IC50 (radioligand displacement) was less than 1000 nM.

With `CC(C)(C)c1ccc(C2c3cccn3CCCN2C(=O)Cc2c(F)cccc2F)cc1` (stereo not shown) [Example 51, 1-(1-(4-tert-Butylphenyl)-4,5-dihydro-1H-pyrrolo[1,2-a][1,4]diazepin-2(3H)-yl)-2-(2,6-difluorophenyl)ethanone], the “Selectivity, CB2 vs. CB1” value in test [1] is recorded as “− (− indicates < 10-fold)”. The IC50 (radioligand displacement) at Human CB2 was more than 1000 nM.

In the case of `CC(C)(C)c1ccc(C2c3cccn3CCCN2C(=O)CN2CCOCC2)cc1` (stereo not shown) [Example 52, 1-(1-(4-tert-Butylphenyl)-4,5-dihydro-1H-pyrrolo[1,2-a][1,4]diazepin-2(3H)-yl)-2-morpholinoethanone], the “Selectivity, CB2 vs. CB1” value in test [1] is given as “− (− indicates < 10-fold)”. In addition, the IC50 (radioligand displacement) at Human CB2 was more than 1000 nM.

For the molecule `CC(C)(C)c1ccc(C2c3cccn3CCCN2c2nc3ccccc3o2)cc1` (stereo not shown) [Example 53, 2-(1-(4-tert-Butylphenyl)-4,5-dihydro-1H-pyrrolo[1,2-a][1,4]diazepin-2(3H)-yl)benzo[d]oxazole], the “Selectivity, CB2 vs. CB1” value in test [1] is on record as “− (− indicates < 10-fold)”. Besides, the IC50 (radioligand displacement) on Human CB2 was more than 1000 nM.

Turning to `CC(C)(C)c1ccc(Cc2ccc3n2CCCN3c2nc3ccccc3o2)cc1` [Example 54, 2-(6-(4-tert-Butylbenzyl)-3,4-dihydropyrrolo[1,2-a]pyrimidin-1(2H)-yl)benzo[d]oxazole], the “Selectivity, CB2 vs. CB1” value in test [1] is given as “− (− indicates < 10-fold)”. Moreover, on Human CB2, the IC50 (radioligand displacement) was more than 1000 nM.

For the molecule `CC(C)(C)c1ccc(C2=C(C(=O)Nc3ccc(F)cc3F)CCn3cccc32)cc1` [Example 56, 8-(4-tert-Butylphenyl)-N-(2,4-difluorophenyl)-5,6-dihydroindolizine-7-carboxamide], the “Selectivity, CB2 vs. CB1” value in test [1] is recorded as “− (− indicates < 10-fold)”. Moreover, the IC50 (radioligand displacement) at Human CB2 was more than 1000 nM.

On to `CC(C)(C)c1ccc(C2=C(C(=O)Nc3ccc(Cl)cc3Cl)CCn3cccc32)cc1` [Example 57, 8-(4-tert-Butylphenyl)-N-(2,4-dichlorophenyl)-5,6-dihydroindolizine-7-carboxamide], for which, in test [1], the “Selectivity, CB2 vs. CB1” value is reported as “− (− indicates < 10-fold)”. In addition, the IC50 (radioligand displacement) at Human CB2 was more than 1000 nM.

Take `CC(C)(C)c1ccc(C2=C(C(=O)Nc3ccc(OC(F)(F)F)cc3)CCn3cccc32)cc1` [Example 58, 8-(4-tert-Butylphenyl)-N-(4-(trifluoromethoxy)phenyl)-5,6-dihydroindolizine-7-carboxamide]: the “Selectivity, CB2 vs. CB1” value in test [1] is listed as “− (− indicates < 10-fold)”. Also, on Human CB2, the IC50 (radioligand displacement) is more than 1000 nM.

As to `CC(C)(C)c1ccc(C2=C(C(=O)Nc3ccc(F)c(F)c3)CCn3cccc32)cc1` [Example 59, 8-(4-tert-Butylphenyl)-N-(3,4-difluorophenyl)-5,6-dihydroindolizine-7-carboxamide], the “Selectivity, CB2 vs. CB1” value in test [1] was “+ (+ indicates > 10-fold)”. Further, the IC50 (radioligand displacement) at Human CB2 is less than 1000 nM.

Turning to `CC(C)(C)c1ccc(C2=C(C(=O)Nc3ccc(Cl)cc3)CCn3cccc32)cc1` [Example 60, 8-(4-tert-Butylphenyl)-N-(4-chlorophenyl)-5,6-dihydroindolizine-7-carboxamide], the “Selectivity, CB2 vs. CB1” value in test [1] is reported as “− (− indicates < 10-fold)”. In addition, the IC50 (radioligand displacement) at Human CB2 is less than 1000 nM.

As to `CC(C)(C)c1ccc(C2=C(C(=O)Nc3ccc(F)cc3F)CCCn3cccc32)cc1` [Example 62, (E)-9-(4-tert-Butylphenyl)-N-(2,4-difluorophenyl)-6,7-dihydro-5H-pyrrolo[1,2-a]azepine-8-carboxamide], the “Selectivity, CB2 vs. CB1” value in test [1] is on record as “− (− indicates < 10-fold)”. The IC50 (radioligand displacement) on Human CB2 was less than 1000 nM.

`CC(C)(C)c1ccc(C2=C(C(=O)Nc3ccc(Cl)cc3Cl)CCCn3cccc32)cc1` [Example 63, (E)-9-(4-tert-Butylphenyl)-N-(2,4-dichlorophenyl)-6,7-dihydro-5H-pyrrolo[1,2-a]azepine-8-carboxamide]: in test [1], the “Selectivity, CB2 vs. CB1” value is “− (− indicates < 10-fold)”. For the same molecule, the IC50 (radioligand displacement) on Human CB2 was less than 1000 nM.

`CC(C)(C)c1ccc(C2=C(C(=O)Nc3ccc(C(F)(F)F)cc3)CCCn3cccc32)cc1` [Example 64, (E)-9-(4-tert-Butylphenyl)-N-(4-(trifluoromethyl)phenyl)-6,7-dihydro-5H-pyrrolo[1,2-a]azepine-8-carboxamide]: in test [1], the “Selectivity, CB2 vs. CB1” value is given as “− (− indicates < 10-fold)”. Besides, the IC50 (radioligand displacement) on Human CB2 is less than 1000 nM.

As for `CC(C)(C)c1ccc(C2=C(C(=O)Nc3ccc(F)c(F)c3)CCCn3cccc32)cc1` [Example 65, (E)-9-(4-tert-Butylphenyl)-N-(3,4-difluorophenyl)-6,7-dihydro-5H-pyrrolo[1,2-a]azepine-8-carboxamide], in test [1], the “Selectivity, CB2 vs. CB1” value is “+ (+ indicates > 10-fold)”. Also, the IC50 (radioligand displacement) on Human CB2 was less than 1000 nM.

As to `CC(C)(C)c1ccc(C2=C(C(=O)Nc3ccc(Cl)cc3)CCCn3cccc32)cc1` [Example 66, (E)-9-(4-tert-Butylphenyl)-N-(4-chlorophenyl)-6,7-dihydro-5H-pyrrolo[1,2-a]azepine-8-carboxamide], the “Selectivity, CB2 vs. CB1” value in test [1] is on record as “+ (+ indicates > 10-fold)”. Also, the IC50 (radioligand displacement) on Human CB2 was less than 1000 nM.

As to `O=C(Nc1ccc(F)cc1F)C1=C(c2ccccc2)c2cccn2CCC1` [Example 73, (E)-N-(2,4-Difluorophenyl)-9-phenyl-6,7-dihydro-5H-pyrrolo[1,2-a]azepine-8-carboxamide], the “Selectivity, CB2 vs. CB1” value in test [1] is reported as “− (− indicates < 10-fold)”. On Human CB2, the IC50 (radioligand displacement) was more than 1000 nM.

Regarding `O=C(Nc1ccc(C(F)(F)F)cc1)C1=C(c2ccccc2)c2cccn2CCC1` [Example 74, (E)-9-Phenyl-N-(4-(trifluoromethyl)phenyl)-6,7-dihydro-5H-pyrrolo[1,2-a]azepine-8-carboxamide], the “Selectivity, CB2 vs. CB1” value in test [1] is recorded as “− (− indicates < 10-fold)”. Moreover, at Human CB2, the IC50 (radioligand displacement) is more than 1000 nM.

Regarding `O=C(Nc1ccc(F)c(F)c1)C1=C(c2ccccc2)c2cccn2CCC1` [Example 75, (E)-N-(3,4-Difluorophenyl)-9-phenyl-6,7-dihydro-5H-pyrrolo[1,2-a]azepine-8-carboxamide], the “Selectivity, CB2 vs. CB1” value in test [1] is listed as “− (− indicates < 10-fold)”. Moreover, the IC50 (radioligand displacement) on Human CB2 is less than 1000 nM.

As for `CC(C)(C)c1ccc(C2=C(C(=O)Nc3ccc(Cl)cc3)CCCn3cncc32)cc1` [Example 77, (E)-9-(4-tert-Butylphenyl)-N-(4-chlorophenyl)-6,7-dihydro-5H-imidazo[1,5-a]azepine-8-carboxamide], in test [1], the “Selectivity, CB2 vs. CB1” value was “− (− indicates < 10-fold)”. Also, on Human CB2, the IC50 (radioligand displacement) was more than 1000 nM.

With `CC(C)(C)c1ccc(C2=C(C(=O)Nc3ccc(F)cc3F)CCCn3cncc32)cc1` [Example 78, ((E)-9-(4-tert-Butylphenyl)-N-(2,4-difluorophenyl)-6,7-dihydro-5H-imidazo[1,5-a]azepine-8-carboxamide], the “Selectivity, CB2 vs. CB1” value in test [1] is “− (− indicates < 10-fold)”. Moreover, the IC50 (radioligand displacement) on Human CB2 is more than 1000 nM.

In the case of `CC(C)(C)c1ccc(C2=C(C(=O)Nc3ccc(Cl)c(Cl)c3)CCCn3cncc32)cc1` [Example 79, (E)-9-(4-tert-Butylphenyl)-N-(3,4-dichlorophenyl)-6,7-dihydro-5H-imidazo[1,5-a]azepine-8-carboxamide], the “Selectivity, CB2 vs. CB1” value in test [1] is listed as “− (− indicates < 10-fold)”. For the same molecule, on Human CB2, the IC50 (radioligand displacement) was less than 1000 nM.

Consider `CC(C)(C)c1ccc(C2=C(C(=O)Nc3ccc(Cl)cc3Cl)CCCn3cncc32)cc1` [Example 80, (E)-9-(4-tert-Butylphenyl)-N-(2,4-dichlorophenyl)-6,7-dihydro-5H-imidazo[1,5-a]azepine-8-carboxamide], for which the “Selectivity, CB2 vs. CB1” value in test [1] is “− (− indicates < 10-fold)”. Also, the IC50 (radioligand displacement) at Human CB2 is more than 1000 nM.
